Assay results taken from US5459256A, “Lipophilic, aminohydrolase-activated prodrugs” (priority 1991, dated 1995).
Entries after “also recorded” stand apart in the source; their conditions may differ.

How the values were obtained:
[1] = system: HIV-1/IIIB (CD4^+ ATH8 cells); assay: HIV cytopathic effect inhibition assay in ATH8 cells (% protection); type: cell-based; conditions: for inhibition at 10 µM: Human immunodeficiency virus 1, IIIB, ATH-8, 192 h
Method: HIV Cytopathic Effect Inhibition Assay.
The HIV cytopathic effect inhibition assay was performed as previously described. (Mitsuya, H. & Broder, S. Proc. Nat. Acad. Sci. USA 1986, 83, 1911) Briefly, 200,000 target CD4^+ ATH8 cells were exposed to cell-free HIV-1/IIIB at a dose of 43 (or 1087 for compound 1g) TCID50 (50% tissue culture infectious dose) for 1 h, resuspended in 2 ml of fresh culture media containing interleukin 2, and cultured at 37° C. with or without test compounds in 5% CO2 -containing humidified air. On day 8 in culture, the viable cells were counted by using the dye exclusion method. All compounds, including inactives, were evaluated a minimum of two times in separate experiments. Data reported in Table II are from representative tests. The % protection against the virus was determined by the following formula: 100 times [(the number of viable cells exposed to HIV-1 and cultured in the presence of the compound minus the number of viable cells exposed to HIV-1 and cultured in the absence of compound) divided by (the number of viable cells cultured alone minus the number of viable cells exposed to HIV-1 and cultured in the absence of the compound)]. The % toxicity of a compound on the target cells was determined by the following formula: 100 times [1 minus (the number of total viable cells cultured in the presence of the compound divided by the number of total viable cells cultured alone)]. Calculated percentages equal to or less than zero are expressed as 0%.
^a ATH8 cells were exposed to HIV1/IIIB per cell for 1 hr and
cultured in the presence of various concentrations of each compound. On
day 8, the total viable cells were counted. Orders of numbers in the
column for concentrations correspond to the orders of numbers in other

[2] = system: HIV; conditions: cited from earlier work
[3] = physchem; conditions: octanol/ph 7.0 buffer, pH 7, Log P
Method: Measurement of Octanol-Water Partition Coefficients.
n-Octanol-water partition coefficients (P) were determined by a microscale shake-flask procedure, (Ford, H. et al Abstracts of Papers, 200th National Meeting of the American Chemical Society, Washington, D.C.; American Chemical Society: Washington, D.C., 1990; CARB 13) which was modification of an earlier method (Nahum, A. & Horvath, C. J. Chromatogr. 1980, 192, 315). A 20 μL aliquot of a 0.5 mg/mL DMSO solution of the dideoxynucleoside was dissolved in 1.0 mL of octanol-saturated, pH 7.0, 0.01M potassium phosphate buffer. This was mixed thoroughly with 1.0 ml of buffer-saturated n-octanol in a 2-mL Mixxor apparatus at 24°-26° C. and then allowed to stand for 15 min. The phases were separated, centrifuged at 600×g for 5 min, and the relative concentration of sample in each phase determined by HPLC analysis of a 50 μl aliquot. The partition coefficient was calculated by dividing the absolute area of the appropriate integrated peak from the octanol phase by that of the buffer phase (Table I).
Octanol/pH 7.0 buffer partition coefficients were determined using a newly developed microscale method. […] The addition of a methyl group normally increases the log P value of a compound by about 0.5.

Structure (SMILES): CNc1ncnc2c1ncn2[C@@H]1O[C@H](CO)C[C@@H]1F [Compound 1f, N^6 -Methyl-9-(2'3'-dideoxy-2'-fluoro-β-D-arabinofuranosyl)adenine]
- % Protection ([1]; 10 μM, with dCF (2 μM), 11520 min): < 10%
- anti-HIV activity in the presence of dCF (in words) ([1]; ATH8 cells, dCF added): protection was either abolished or greatly decreased; also recorded: can have activity abolished
- anti-HIV activity (in words) ([1]; ATH8 cells, no additive): that activity was reduced relative to 1a; also recorded: reproducible, albeit unspectacular, activity; also recorded: only moderate anti-HIV activity
- inhibition at 10 µM ([1]; 10 μM, no additive (Table IV experiment)): 13%
- inhibition at 10 µM ([1]; 10 μM, with added ADA (0.7 U/ml)): 90%
- activity against HIV in peripheral blood mononuclear cells (in words) [2]: the activity of 1f against HIV in peripheral blood mononuclear cells was recently reported
- logD [3]: 0.27 ± 0.01
